Data from patent publication US5968920A, “Compounds having a benzisoselen-azoline and -azine structure, method for preparing same and therapeutic uses thereof” (Oxis Isle of Man, Limited, priority 1994, dated 1999).

How the values were obtained:
[1] = Glutathione peroxidase activity, t-BuOOH as hydroperoxide; type: biochemical; conditions: compound 20 μM, pH = 7.3, 37° C., [GSH] = 2 mM
Description: (§1) To 1.5 ml of HEPES buffer, 50 mM, pH=7.3, containing 0.2 mM of DTPA, 0.144 mM of NADPH, 2.2 mM of reduced glutathione and 1.1 U/ml of glutathione disulfide reductase, pre-equilibrated for 2 minutes at 37° C., 100 μl of an ethanolic mother solution of the compound to be tested or 100 μl of absolute ethanol (blank) was added. Each compound was tested at a final concentration of 20 μM.
(§2) Subsequently, 50 μl of the following was added:
tertiobutyl hydroperoxide (t-BuOOH), 6.6 mM in ultrapure water;
(§3) or the hydroperoxide of linoleic acid (18:2-OOH) prepared using soya lipoxygenase (see M. O. Funk et al., Lipids, (1976), 11, pp 113-117), 3.3 mM in a water/methanol mixture, 85/15 (V/V). The glutathione peroxidase activity was measured at 37° C. by measuring the reduction in absorbance at 340 nm over 5 minutes. The initial enzymatic rate or activity was proportional to the slope of the plot of absorbance against time.
(§4) They are expressed in nmoles of hydroperoxide reduced per minute.

[2] = Glutathione peroxidase activity, hydrogen peroxide; type: biochemical; conditions: compound 20 μM, pH = 7.3, 37° C., [GSH] = 2 mM
Description: as §1, §2
or hydrogen peroxide (H2 O2), 1.6 mM in ultrapure water;
as §3, §4

endothelial cells [3] = test: Viability of endothelial cells subjected to linoleic acid hydroperoxide (MTT); type: cell-based, human; conditions: compound 4 μM, 1 h; 18:2-OOH 50 μM, 2 h; MTT after about twenty hours
Description: Human endothelial cells were cultivated at 37° C. in multi-hole plates or Petri dishes in an atmosphere of saturated humidity constituted by a gaseous mixture of 95% air and 5% of CO2. The culture medium was constituted by a M 199 medium, pH=7.4, containing 20% of foetal calf serum, 2 mM of L-glutamine, 100 U/ml of penicillin, 100 μg/ml of streptomycin and 1% by volume of a medium supplement containing heparin and a cell growth factor.
When the cells were near confluence, they were incubated for one hour in the presence or absence of one of the following compounds: BXT-51056, BXT-51072, BXT-51077, or ebelsen. Each of these compounds was incorporated at 4 μM into culture medium containing 2% of foetal calf serum, all other conditions being the same.
After washing the cells three successive times with a PBS buffer, they were incubated in the presence or absence (control) of linoleic acid hydroperoxide (18:2-OOH), 50 μM, in the culture medium defined above. […] After about twenty hours, the viability of the cells was determined by measurement using the bromide of 3-(4,5-dimethylthiazol-2-yl)-2,5-diphenyl-2H-tetrazolium (MTT).
The results are shown in FIG. 1, expressed as the survival percentage with respect to the control and where the reference is shown by the black rectangle.

endothelial cells [4] = test: Adhesion of PMN to endothelial cells induced by TNF-α (myeloperoxidase); type: cell-based, human; conditions: compound 10 μM vs pentoxifylline 50 μM; TNF-α 1 ng/ml
Description: (§5) Human endothelial cells were cultivated under the same conditions as those described for Example 18.
When the cells were near confluence, they were incubated for one hour in the presence or absence of the following compounds: BXT-51072, BXT-51077 or pentoxifylline. Compounds BXT-51072 and BXT-51077, each at 10 μM, and the pentoxifylline, at 50 μM, were incorporated in culture medium containing 2% of foetal calf serum, all other conditions being the same. […] Myeloperoxidase (MPO), an enzyme specifically contained in PMNs, was then measured in the cell lysates obtained to evaluate adhesion of the PMNs on the endothelial cells. The von Willebrandt factor (vWf) liberated in the culture medium by the endothelial cells was measured after three and a half hours of incubation, as a label of the changes in the cells.
Incubation of the endothelial cells in the presence of PMN and TNF-α led to a very significant increase in the quantity of MPO and vWf with respect to the respective controls (PMN alone, and endothelial cells alone respectively), meaning the adhesion of activated PMNs to the endothelial cells and changes in the latter.
They are expressed as the percentage inhibition by referring the MPO and vWf measurements to the respective concentrations of MPO and vWf determined when the endothelial cells were incubated with TNF-α and PMNs.

interleukin 8 (IL-8) = test: Endothelial production of interleukin 8 induced by TNF-α; type: cell-based, human; conditions: Homo sapiens, 4 h, read-out: inhibition of IL-8 production induced by TNF-α
Description: as §5
When the cells were near confluence, they were incubated for one hour in the presence or absence of the following compounds: BXT-51072, BXT-51077 or ebselen. Each of these compounds was incorporated into culture medium containing 2% of foetal calf serum at 10 μM, all other conditions being the same. […] After four hours of incubation, the interleukin 8 (IL-8) in the culture medium was measured.

[5] = tested on: von Willebrandt factor (vWf); test: Protection of endothelial cells against interleukin 1 (von Willebrandt factor release); type: cell-based; conditions: Homo sapiens, Endothelial cell; compound 10 μM; IL-1α 50 U/ml; 4 h; compound present or not during IL-1 incubation; read-out: inhibition of increase in vWf liberation induced by IL-1
Description: as §5
When the cells were near confluence, they were incubated for one hour in the presence or absence of the following compounds: BXT-51072, BXT-51077, each of these compounds being at 10 μM in culture medium containing 2% of foetal calf serum , all other conditions being the same. The cells were then washed three times with a PBS buffer. The cells which had not been pretreated by a compound were incubated in the presence or absence (control) of interleukin 1α (IL-1α), at 50 U/ml, in the same culture medium. […] After four hours of incubation, the von Willebrandt factor (vWf) in the culture medium was measured.

P-selectin = test: Endothelial expression of P-selectin induced by TNF-α (ELISA); type: cell-based; conditions: Homo sapiens, Endothelial cell; compound 10 μM; TNF-α 1 ng/ml; 3 to 4 hours; read-out: inhibition of TNF-α induced increase in expression of P-selectin
Description: Human endothelial cells were cultivated under the same conditions as those described for Example 18. When the cells were near confluence, they were incubated for one hour in the presence or absence of BXT-51072 at 10 μM in culture medium containing 2% of foetal calf serum, all other conditions being the same. The cells were then washed three times with a PBS buffer. The cells which had not been pretreated by a compound were incubated in the presence or absence (control) of TNF-α, at 1 ng/ml, in the same culture medium. The pretreated cells were incubated under the same conditions, but the medium also contained BXT-51072 at 10 μM. After 3 to 4 hours of incubation, the cells were washed with a PBS buffer and fixed with 2% formaldehyde in a PBS buffer.

CC1(C)CN[Se]c2ccccc21 [BXT-51072, 4,4-dimethyl-benzisoselenazine]
Glutathione peroxidase activity, t--BuOOH [1]: 27.4 nmoles of hydroperoxide reduced/min | Glutathione peroxidase activity, H2 O2 [2]: 42.0 nmoles of hydroperoxide reduced/min | protection of the cells from death induced by 18:2-OOH (endothelial cells [3]): significantly protected the cells from death | inhibition of the adhesion of PMN induced by TNF-α (MPO) (endothelial cells [4]): inhibit the adhesion of PMN induced by TNF-α, much more effectively than pentoxifylline | inhibition at 10 µM (interleukin 8 (IL-8)): ≥ 70% | inhibition at 10 µM [5]: > 70% | inhibition at 10 µM (P-selectin): > 90%
